Common to all, as to assay: NCI anticancer screen, dose series, 48 h
In test [1] the test system is OVCAR-5.
Test [2] has as its system A498.
Test [3] deals with RXF 393.
Test [4] has as its system KM12.
Test [5] concerns HOP-92.
Test [6] concerns SF-539.
For test [7], the system named is SK-MEL-2.
Test [8] relates to MDA-MB-231.
Test [9] deals with TK-10.
The subject of test [10] is T47D.
The subject of test [11] is SW-620.
Test [12] concerns NCI/ADR-RES.
Test [13] relates to SNB-75.
The subject of test [14] is UACC-257.
Test [15] concerns UO-31.
The subject of test [16] is SK-MEL-5.
Test [17] relates to SF-268.
Test [18] concerns CCRF-CEM.
Test [19] has as its system SF-295.
Test [20] deals with DU-145.

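Five concentrations, 48 hours, 96-well plates. Abbreviation: GI50, concentration required for 50% inhibition of growth.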 Activity calls are given as the source filed them. Cut-off read from the data, not from the text of the source: active = GI50 up to about 1.1 µM and inactive = higher.

As for `CC(C(=O)N1c2ccccc2Sc2ccccc21)N1c2ccccc2Sc2ccccc21` (stereo not given), the GI50 in test [1] is > 100 µM (inactive); in test [2] it was 31.8 µM (inactive); in [3], > 100 µM (inactive); in test [4], 72.1 µM (inactive); in test [5] it was 26.2 µM (inactive); in test [6] it was > 100 µM (inactive). Also, the GI50 in [7] is > 100 µM (inactive); in test [8], > 100 µM (inactive); in test [9], > 100 µM (inactive); in test [10], 46.1 µM (inactive); in [11], > 100 µM (inactive); in test [12] it was > 100 µM (inactive). The GI50 in [13] is 96.4 µM (inactive); in [14], > 100 µM (inactive); in [15] it was 70.1 µM (inactive); in [16], 57.5 µM (inactive); in test [17], > 100 µM (inactive); in test [18], 57.1 µM (inactive). Also, the values for the GI50 in [19] and in test [20] were 98.4 µM (inactive) and > 100 µM (inactive), respectively.
Consider `COc1cc(C[C@H]2c3cc(OC)c(OC)cc3CCN2C)c(Oc2cc3c(cc2OC)-c2c(OC)c(OC)cc4c2[C@H](C3)N(C)CC4)cc1OC` [THALICARPINE], for which the GI50 in test [1] was 10.5 µM (inactive); in [2], 7.06 µM (inactive); in test [3], 3.05 µM (inactive); in [4], 5.18 µM (inactive); in [5] it was 1.78 µM (inactive); in [6] it was 8.28 µM (inactive). The GI50 is 10 µM (inactive) in test [7]; 4.13 µM (inactive) in test [8]; 3.61 µM (inactive) in test [9]; 10.1 µM (inactive) in test [10]; 7.53 µM (inactive) in test [11]; 11.3 µM (inactive) in test [12]. Also, the GI50 in test [13] was 7.03 µM (inactive); in [14], 5.13 µM (inactive); in test [15], 4.66 µM (inactive); in [16] it was 3.28 µM (inactive); in test [17], 9.98 µM (inactive); in test [18], 8.99 µM (inactive). For the same compound, the values for the GI50 in test [19] and in test [20] were 10.1 µM (inactive) and 14 µM (inactive), respectively.
As to `N=C(N)N/N=C\c1ccc(C2CCNCC2)cc1`, the GI50 in test [1], in test [2], in [3], in test [4], in [5] and in test [6] was > 100 µM (inactive) each time. The GI50 in [7], in test [8], in [9], in test [10], in [11] and in test [12] was > 100 µM (inactive) each time. For the same compound, the GI50 in test [13], in test [14], in test [15], in test [16], in [17] and in test [18] was > 100 µM (inactive) in each case. Moreover, the GI50 in [19] and in test [20] was > 100 µM (inactive) throughout.
Consider `O=C1/C(=C/c2ccccc2)N=C2Sc3c([nH]cnc3=O)N12`, for which the GI50 in test [1], in [2], in test [3], in test [4], in test [5] and in test [6] was > 100 µM (inactive) in each case. Moreover, the GI50 in [7], in [8], in test [9], in test [10], in [11] and in [12] was > 100 µM (inactive) in each case. Also, the GI50 in [13], in [14], in [15], in test [16], in [17] and in test [18] was > 100 µM (inactive) in each case. The GI50 in [19] and in test [20] was > 100 µM (inactive) each time.
Consider `COc1cc2c(/C=C3/C(=O)Nc4cc(C)c(O)cc43)c(Cl)[nH]c2cc1C`, for which the GI50 in test [1] is 4.33 µM (inactive); in [2] it was 13.9 µM (inactive); in test [3], 1.66 µM (inactive); in test [4], 1.85 µM (inactive); in test [5], 23 µM (inactive); in test [6], 2.2 µM (inactive). Further, the GI50 was 4.98 µM (inactive) in test [7]; 2.59 µM (inactive) in test [8]; 1.9 µM (inactive) in [9]; 3.16 µM (inactive) in [10]; 2.83 µM (inactive) in [11]; 2.88 µM (inactive) in [12]. Moreover, the GI50 in test [13] was 2.05 µM (inactive); in test [14], 6.18 µM (inactive); in [15] it was 4.31 µM (inactive); in test [16], 2.31 µM (inactive); in [17], 6.12 µM (inactive); in [18] it was 0.552 µM (active). The figures for the GI50 in [19] and in test [20] were 1.52 µM (inactive) and 2.75 µM (inactive), respectively.
In the case of `O=C1SC(c2ccc(Cl)cc2)(c2ccc(Cl)cc2)c2ccccc21`, the GI50 in test [1] was > 100 µM (inactive); in test [2], > 100 µM (inactive); in [3], 39.4 µM (inactive); in test [4], 66.7 µM (inactive); in test [5], 81.5 µM (inactive); in test [6], > 100 µM (inactive). Besides, the GI50 in test [7] is 22.6 µM (inactive); in test [8] it was > 100 µM (inactive); in test [9] it was > 100 µM (inactive); in test [10], 69 µM (inactive); in test [11] it was > 100 µM (inactive); in [12], > 100 µM (inactive). Besides, the GI50 in [13] is > 100 µM (inactive); in [14], 34.3 µM (inactive); in test [15], 76.6 µM (inactive); in test [16] it was 52.8 µM (inactive); in test [17], > 100 µM (inactive); in [18], 36.2 µM (inactive). The values for the GI50 in test [19] and in [20] were 97.5 µM (inactive) and 89.1 µM (inactive), respectively.
As for `COCOC1/C=C/CCCC#C[C@H](C)C(=O)CC1` (stereo not given in full), the GI50 in [1] is 7.38 µM (inactive); in [2], 12.1 µM (inactive); in test [3], 8.41 µM (inactive); in test [4], 4.85 µM (inactive); in test [5] it was 4.4 µM (inactive); in test [6], 16.2 µM (inactive). The GI50 in test [7] was 15 µM (inactive); in test [8], 4.25 µM (inactive); in [9] it was 15.2 µM (inactive); in [10] it was 9.04 µM (inactive); in [11] it was 2.71 µM (inactive); in [12], 11.8 µM (inactive). Moreover, the GI50 in test [13] is 11.1 µM (inactive); in test [14], 6.05 µM (inactive); in [15], 14.8 µM (inactive); in [16], 8.77 µM (inactive); in [17] it was 12.2 µM (inactive); in test [18], 3.13 µM (inactive). In addition, the GI50 is 16.3 µM (inactive) in test [19] and 14.6 µM (inactive) in test [20].
As to `CCOc1ccc(NCC2CC/C(=C\C=C\c3ccccc3)C2=O)cc1` (stereo not given), the GI50 in [1] was 21.5 µM (inactive); in test [2], 28.6 µM (inactive); in test [3], 16.1 µM (inactive); in test [4] it was 6.07 µM (inactive); in [5], 16.1 µM (inactive); in test [6] it was 18.9 µM (inactive). Also, the GI50 in test [7] was > 100 µM (inactive); in test [8], 9.14 µM (inactive); in [9] it was 19.9 µM (inactive); in test [10], 17.3 µM (inactive); in [11] it was 5.83 µM (inactive); in test [12] it was 25.7 µM (inactive). Moreover, the GI50 was 23.2 µM (inactive) in test [13]; 18.5 µM (inactive) in test [14]; 26.6 µM (inactive) in test [15]; 16 µM (inactive) in [16]; 16.4 µM (inactive) in [17]; 6.75 µM (inactive) in test [18]. Also, the GI50 in test [19] was 26.5 µM (inactive); in [20] it was 33.2 µM (inactive).
As to `CCCCc1ccc(Nc2nc(Cl)c3ncn(C4CC(Oc5ccc(C)cc5)C(COc5ccc(C)cc5)O4)c3n2)cc1` (stereo not given), the GI50 in [1] was > 100 µM (inactive); in [2], > 100 µM (inactive); in test [3], > 100 µM (inactive); in [4], > 100 µM (inactive); in test [5], 17.2 µM (inactive); in test [6], > 100 µM (inactive). Also, the GI50 in test [7], in [8], in [9], in [10], in test [11] and in test [12] was > 100 µM (inactive) throughout. In addition, the GI50 in test [13], in [14], in test [15], in [16], in [17] and in test [18] was > 100 µM (inactive) each time. Further, the GI50 in test [19] and in test [20] was > 100 µM (inactive) throughout.
With `Cc1cc(NCc2ccccc2)c2ccccc2[n+]1CCCCCCCCCC[n+]1c(C)cc(NCc2ccccc2)c2ccccc21.[O-][Cl+3]([O-])([O-])[O-].[O-][Cl+3]([O-])([O-])[O-]`, the GI50 in test [1] is 2.19 µM (inactive); in test [2] it was 0.883 µM (active); in test [3] it was 1.96 µM (inactive); in test [4], 0.191 µM (active); in test [5], 0.649 µM (active); in test [6] it was 0.308 µM (active). Besides, the GI50 was 0.458 µM (active) in test [7]; 0.472 µM (active) in test [8]; 1.21 µM (inactive) in test [9]; 0.321 µM (active) in test [10]; 0.752 µM (active) in test [11]; 3.15 µM (inactive) in test [12]. Further, the GI50 was 0.205 µM (active) in test [13]; 0.274 µM (active) in [14]; 1.86 µM (inactive) in [15]; 0.171 µM (active) in [16]; 0.478 µM (active) in test [17]; 0.377 µM (active) in test [18]. The results for the GI50 in [19] and in [20] were 0.391 µM (active) and 0.692 µM (active), respectively.
